Test results as given in PMC10114720.

Legend:
[1] = neutral chemical: log K is the mean of log D over all measurements at the three pH values (D shown independent of pH, paired t-test); sd is the table's stddev. PDMS sheets cleaned by Soxhlet with ethyl acetate; batch shaking method with a mixture of all chemicals at several PDMS-mass to water-volume ratios and spiked levels; vials shaken on an orbital shaker at room temperature in the dark, sampled at two equilibration times; PDMS extracts and water quantified by LC-HRMS (Orbitrap); D from the slope of C_PDMS on C_w or their ratio; conditions: PDMS (polydimethylsiloxane silicone sheet); phosphate buffer at three target pH values (the paper's methods)
[2] = PDMS sheets cleaned by Soxhlet with ethyl acetate; batch shaking method with a mixture of all chemicals at several PDMS-mass to water-volume ratios and spiked levels; vials shaken on an orbital shaker at room temperature in the dark, sampled at two equilibration times; PDMS extracts and water quantified by LC-HRMS (Orbitrap); D from the slope of C_PDMS on C_w or their ratio; value is the mean over that pH's experiments (individual experiments in the SI's concentrations table), sd is the table's stdev; conditions: PDMS (polydimethylsiloxane silicone sheet), phosphate buffer at three target pH values (the paper's methods)

| Compound | log K PDMS/w (neutral species) [1] | log D PDMS/w (apparent distribution ratio at the stated pH) ([2]; pH 3) | log D PDMS/w (apparent distribution ratio at the stated pH) ([2]; pH 7.4) | log D PDMS/w (apparent distribution ratio at the stated pH) ([2]; pH 11.5) |
| --- | --- | --- | --- | --- |
| CCOC(=O)C(C)(C)Oc1ccc(Cl)cc1 | 1.711 log units; D and K as the pape | 1.764 log units; D and K as the pape | 1.684 log units; D and K as the pape | 1.69 log units; D and K as the pape |
| O=C1CC2(CCCCC2)CN1 | 1.277 log units; D and K as the pape | 1.311 log units; D and K as the pape | 1.249 log units; D and K as the pape | 1.271 log units; D and K as the pape |
| O=C1NCCN1Cc1ccc(Cl)nc1 | 1.372 log units; D and K as the pape | – | 1.277 log units; D and K as the pape | 1.451 log units; D and K as the pape |
| CN(C)S(=O)(=O)c1ccc(N)cc1 | -0.02333 log units; D and K as the pape | -0.06167 log units; D and K as the pape | -0.02167 log units; D and K as the pape | 0.01333 log units; D and K as the pape |
| O=C(/C=C/C=C/c1ccc2c(c1)OCO2)N1CCCCC1 | 3.135 log units; D and K as the pape | 3.24 log units; D and K as the pape | 3.109 log units; D and K as the pape | 3.066 log units; D and K as the pape |
| CN(C)c1ccc(C(=O)c2ccc(N(C)C)cc2)cc1 | 2.057 log units; D and K as the pape | 2.372 log units; D and K as the pape | 2.263 log units; D and K as the pape | 1.409 log units; D and K as the pape |
| CCCCCCCCn1sccc1=O | 2.956 log units; D and K as the pape | 3.047 log units; D and K as the pape | 2.926 log units; D and K as the pape | 2.893 log units; D and K as the pape |
| CCCN(CCOc1c(Cl)cc(Cl)cc1Cl)C(=O)NC=O | 2.487 log units; D and K as the pape | 2.492 log units; D and K as the pape | 2.482 log units; D and K as the pape | – |
| CCN(CC)C(=O)c1cccc(C)c1 | 1.611 log units; D and K as the pape | 1.611 log units; D and K as the pape | 1.592 log units; D and K as the pape | 1.633 log units; D and K as the pape |
| CC(C)(C)Nc1nc(N)nc(Cl)n1 | 1.296 log units; D and K as the pape | 1.314 log units; D and K as the pape | 1.264 log units; D and K as the pape | 1.309 log units; D and K as the pape |
| N#Cc1nn(-c2c(Cl)cc(C(F)(F)F)cc2Cl)c(N)c1SC(F)(F)F | 2.436 log units; D and K as the pape | 2.477 log units; D and K as the pape | 2.459 log units; D and K as the pape | 2.375 log units; D and K as the pape |
| CC(C)(C)NC(=O)[C@H]1CC[C@H]2[C@@H]3CC[C@H]4NC(=O)C=C[C@]4(C)[C@H]3CC[C@]12C | 2.638 log units; D and K as the pape | 2.64 log units; D and K as the pape | 2.691 log units; D and K as the pape | 2.582 log units; D and K as the pape |
| CC(C)OC(=O)C(C)(C)Oc1ccc(C(=O)c2ccc(Cl)cc2)cc1 | 4.415 log units; D and K as the pape | 4.526 log units; D and K as the pape | 4.273 log units; D and K as the pape | 4.425 log units; D and K as the pape |
| CC(C)(C#N)c1cc(Cn2cncn2)cc(C(C)(C)C#N)c1 | 2.022 log units; D and K as the pape | 2.047 log units; D and K as the pape | 1.994 log units; D and K as the pape | 2.025 log units; D and K as the pape |
| Cc1c(C=O)c(=O)n(-c2ccccc2)n1C | -0.2009 log units; D and K as the pape | -0.2614 log units; D and K as the pape | -0.1813 log units; D and K as the pape | -0.1629 log units; D and K as the pape |
| CC=CC(=O)N(CC)c1ccccc1C (mixture of isomers) | 2.056 log units; D and K as the pape | 2.104 log units; D and K as the pape | 2.038 log units; D and K as the pape | 2.025 log units; D and K as the pape |
| COCCOCCOCCOCCOC | 0.442 log units; D and K as the pape | 0.372 log units; D and K as the pape | 0.424 log units; D and K as the pape | 0.53 log units; D and K as the pape |
| CCNc1nc(N)nc(Cl)n1 | 0.1961 log units; D and K as the pape | 0.21 log units; D and K as the pape | 0.2883 log units; D and K as the pape | 0.09 log units; D and K as the pape |
| Cc1c(C(C)C)c(=O)n(-c2ccccc2)n1C | 1.593 log units; D and K as the pape | 1.579 log units; D and K as the pape | 1.554 log units; D and K as the pape | 1.65 log units; D and K as the pape |
| CN(C)C(=O)Nc1ccccc1 | 0.4555 log units; D and K as the pape | 0.45 log units; D and K as the pape | 0.473 log units; D and K as the pape | 0.443 log units; D and K as the pape |
| NC(=O)Nc1ccc(Cl)c(Cl)c1 | 0.6359 log units; D and K as the pape | 0.5975 log units; D and K as the pape | 0.6543 log units; D and K as the pape | 0.6515 log units; D and K as the pape |
